ChEMBL document CHEMBL1201862, “PubChem BioAssay data set” (2004)
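Step 1: Grow cells in 96-well plates. Step 2: Expose to compound for 48 hours at 5 concentrations. Step 3: Interpolate endpoints linearly; if unreached, use highest concentration. The concentration for 50% growth inhibition is given as GI50.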 Active and inactive are the calls of the source. No stated cut-off is given here; in the data, active = GI50 up to about 1.1 µM and inactive = higher.

Assays:
Assay in all cases: inhibition of tumour cell growth, NCI panel, 48 h
[1] = test system: 786-0
[2] = test system: A498
[3] = test system: CAKI-1
[4] = test system: CCRF-CEM
[5] = test system: COLO 205
[6] = test system: HCT-116
[7] = test system: HT-29
[8] = test system: IGROV-1
[9] = test system: K562
[10] = test system: LOX IMVI
[11] = test system: LXFL 529
[12] = test system: MOLT-4
[13] = test system: NCI-H226
[14] = test system: SF-268
[15] = test system: SK-MEL-28
[16] = test system: SK-OV-3
[17] = test system: SR
[18] = test system: UO-31

SMILES | GI50 [1] | GI50 [2] | GI50 [3] | GI50 [4] | GI50 [5] | GI50 [6] | GI50 [7] | GI50 [8] | GI50 [9] | GI50 [10] | GI50 [11] | GI50 [12] | GI50 [13] | GI50 [14] | GI50 [15] | GI50 [16] | GI50 [17] | GI50 [18]
CCCCNC(=O)CCN(C(=O)O)S(=O)(=O)c1ccc(NC(=O)c2ccccc2)cc1 | 11.9 µM (inactive) | > 100 µM (inactive) | > 100 µM (inactive) | > 100 µM (inactive) | 64.3 µM (inactive) | > 100 µM (inactive) | 22 µM (inactive) | > 100 µM (inactive) | 37 µM (inactive) | 18.8 µM (inactive) | > 100 µM (inactive) | > 100 µM (inactive) | > 100 µM (inactive) | > 100 µM (inactive) | > 100 µM (inactive) | > 100 µM (inactive) | > 100 µM (inactive) | > 100 µM (inactive)
Cc1ccc(NC(=O)COC(=O)c2cccc3c(=O)c4ccccc4[nH]c23)cc1 | 28.4 µM (inactive) | 19.1 µM (inactive) | 29.2 µM (inactive) |  | 21.9 µM (inactive) | 14.6 µM (inactive) | 36.6 µM (inactive) | 44.8 µM (inactive) | 32.7 µM (inactive) | 16.9 µM (inactive) | 32.1 µM (inactive) | 13.6 µM (inactive) | 26.5 µM (inactive) | 35.6 µM (inactive) | 47.4 µM (inactive) | 25.5 µM (inactive) | 13 µM (inactive) | 5.35 µM (inactive)
Cc1nc2c(s/c(=N\N)n2-c2ccccc2)c(=O)n1C | > 100 µM (inactive) | > 100 µM (inactive) | > 100 µM (inactive) | > 100 µM (inactive) | > 100 µM (inactive) | > 100 µM (inactive) | > 100 µM (inactive) | > 100 µM (inactive) | > 100 µM (inactive) | > 100 µM (inactive) | > 100 µM (inactive) | > 100 µM (inactive) | > 100 µM (inactive) | > 100 µM (inactive) | > 100 µM (inactive) | > 100 µM (inactive) | > 100 µM (inactive) | > 100 µM (inactive)
CCOC(=O)NC(=O)c1cn(CCOCCOC(=O)NCCCCCCNC(=O)OCCOCCn2cc(C(=O)NC(=O)OCC)c(=O)[nH]c2=O)c(=O)[nH]c1=O | > 100 µM (inactive) | > 100 µM (inactive) |  |  | > 100 µM (inactive) | > 100 µM (inactive) | > 100 µM (inactive) | > 100 µM (inactive) | > 100 µM (inactive) | > 100 µM (inactive) | > 100 µM (inactive) |  |  | > 100 µM (inactive) | > 100 µM (inactive) | > 100 µM (inactive) | > 100 µM (inactive) | > 100 µM (inactive)
COC(=O)c1ccc(Cl)cc1NC(=O)C1CCCCC1 | > 100 µM (inactive) |  | > 100 µM (inactive) |  | > 100 µM (inactive) | > 100 µM (inactive) | > 100 µM (inactive) |  | > 100 µM (inactive) |  | > 100 µM (inactive) | > 100 µM (inactive) | > 100 µM (inactive) | > 100 µM (inactive) | > 100 µM (inactive) |  | > 100 µM (inactive) | 3.53 µM (inactive)
CC1(C(=O)NCCN(CCNC(=O)C2(C)CC3(C)CC(C)(C2)C(=O)NC3=O)CCNC(=O)C2(C)CC3(C)CC(C)(C2)C(=O)NC3=O)CC2(C)CC(C)(C1)C(=O)NC2=O (stereo not drawn) | > 100 µM (inactive) | > 100 µM (inactive) | > 100 µM (inactive) | > 100 µM (inactive) | > 100 µM (inactive) | > 100 µM (inactive) | > 100 µM (inactive) | > 100 µM (inactive) | > 100 µM (inactive) |  | > 100 µM (inactive) | > 100 µM (inactive) |  |  | > 100 µM (inactive) | > 100 µM (inactive) | > 100 µM (inactive) | > 100 µM (inactive)
COC1OC(COS(=O)(=O)c2ccc(C)cc2)C(O)C(OS(=O)(=O)c2ccc(C)cc2)C1OS(=O)(=O)c1ccc(C)cc1 (stereo not drawn) | > 100 µM (inactive) |  | 1.03 µM (active) | > 100 µM (inactive) | > 100 µM (inactive) | > 100 µM (inactive) | > 100 µM (inactive) | > 100 µM (inactive) | > 100 µM (inactive) |  | > 100 µM (inactive) | > 100 µM (inactive) | > 100 µM (inactive) | > 100 µM (inactive) | > 100 µM (inactive) | > 100 µM (inactive) | > 100 µM (inactive) | > 100 µM (inactive)
C/C=C1\CN2CCc3c([nH]c4ccccc34)C2C=C1CCO (stereo not drawn) | > 340 µM (inactive) |  | > 340 µM (inactive) | > 340 µM (inactive) | > 340 µM (inactive) | > 340 µM (inactive) | > 340 µM (inactive) | > 340 µM (inactive) | > 340 µM (inactive) | > 340 µM (inactive) | > 340 µM (inactive) | > 340 µM (inactive) | > 340 µM (inactive) | > 340 µM (inactive) | > 340 µM (inactive) | > 340 µM (inactive) | > 340 µM (inactive) | 
CC(=O)n1c2ccccc2c2nc3nc(Oc4ccc(C)cc4)c4ccccc4c3cc21 | 65.8 µM (inactive) |  | > 100 µM (inactive) | > 100 µM (inactive) | > 100 µM (inactive) | > 100 µM (inactive) | > 100 µM (inactive) | > 100 µM (inactive) | > 100 µM (inactive) | > 100 µM (inactive) | 97.9 µM (inactive) | > 100 µM (inactive) | > 100 µM (inactive) | 92.3 µM (inactive) | > 100 µM (inactive) | > 100 µM (inactive) | > 100 µM (inactive) | > 100 µM (inactive)
O=C(OCCOCCOC(=O)c1c[nH]cc1-c1ccccc1)c1c[nH]cc1-c1ccccc1 | 25.9 µM (inactive) | 19.3 µM (inactive) | 26.5 µM (inactive) | 23 µM (inactive) | 19.8 µM (inactive) | 16 µM (inactive) | 18.8 µM (inactive) | 21.3 µM (inactive) | 28.9 µM (inactive) | 16.4 µM (inactive) | 21.8 µM (inactive) | 17.9 µM (inactive) | 19.2 µM (inactive) | 15.5 µM (inactive) |  | 35.1 µM (inactive) | 21 µM (inactive) | 14.1 µM (inactive)
C1C[N+]23CCC[N+]2(C1)CCC3 (stereo not drawn) | > 100 µM (inactive) | > 100 µM (inactive) | > 100 µM (inactive) | 31.6 µM (inactive) | > 100 µM (inactive) | > 100 µM (inactive) | > 100 µM (inactive) | > 100 µM (inactive) | > 100 µM (inactive) | > 100 µM (inactive) | > 100 µM (inactive) | > 100 µM (inactive) | > 100 µM (inactive) | > 100 µM (inactive) | > 100 µM (inactive) | > 100 µM (inactive) |  | 99.8 µM (inactive)
O=C1CCC2(c3ccc(Cl)cc3)Nc3cc(Cl)ccc3N12 (stereo not drawn) | 10.2 µM (inactive) | 12.1 µM (inactive) |  | 2.42 µM (inactive) | 4.7 µM (inactive) | 7.06 µM (inactive) | 12.4 µM (inactive) | 13.6 µM (inactive) | 2.31 µM (inactive) | 12.1 µM (inactive) | 10.8 µM (inactive) |  |  | 12.4 µM (inactive) | 12.4 µM (inactive) | 17.6 µM (inactive) | 5.9 µM (inactive) | 15.6 µM (inactive)
